Assay results from paper PMC9182104 (Molecules, 2022).
Several values for one entry are separate records, joined by “and”; a condition that tells them apart may be missing. Equal entries are not always repeated. Where two headings read alike, the source gives them in different places.

Columns and labels:
PDE5A = PDE5A (Homo sapiens, UniProt O76074); assay: Enzymatic assay of PDE5A (3H-cGMP substrate); format: biochemical; settings: for inhibition at 0.1 µM / inhibition at 0.5 µM: 0.25 h; for IC50: PDE5, mean ± SD of three independent experiments
[1] = Rat liver microsomal stability; format: in vitro ADME; settings: rat liver microsomes, compound 0.5 μM; read-out: T1/2 in RLM
[2] = system: fibrosis markers α-SMA and FN; set-up: method as in earlier work; settings: rat, bleomycin-induced pulmonary fibrosis; cited from earlier work
[3] = cited from earlier work
[4] = PDE5, compound at 0.1 μM, read-out: Inhibition Ratio (%) 0.1 μM
[5] = PDE5, compound at 0.5 μM, read-out: Inhibition Ratio (%) 0.5 μM

| SMILES | inhibition at 0.1 µM (PDE5A; [4]) [%] | inhibition at 0.5 µM (PDE5A; [5]) [%] | IC50 (PDE5A) | also measured |
| --- | --- | --- | --- | --- |
| O[C@H]1CCN(c2nc(N3CCSC3)c3nc(N4CC[C@H](O)C4)nc(N4CCSC4)c3n2)C1 [(S)-5c, (3S,3′S)-1,1′-(4,8-di(thiazolidin-3-yl)pyrimido[5,4-d]pyrimidine-2,6-diyl)bis(pyrrolidin-3-ol)] | 36 | 49 | – | – |
| C[C@H]1CCCN1c1nc(N(CCO)CCO)nc2c(N3CCC[C@@H]3C)nc(N(CCO)CCO)nc12 [(R)-4f, 2,2′,2″,2‴-((4,8-bis((S)-2-methylpyrrolidin-1-yl)pyrimido[5,4-d]pyrimidine-2,6-diyl)bis(azanetriyl))tetrakis(ethan-1-ol)] | – | – | – | Inhibition Ratio (%) 0.1 μM (PDE5A; PDE5, compound at 0.1 μM): 27%; Inhibition Ratio (%) 0.5 μM (PDE5A; PDE5, compound at 0.5 μM): 44% |
| O[C@@H]1CCN(c2nc(N3CCSC3)c3nc(N4CC[C@@H](O)C4)nc(N4CCSC4)c3n2)C1 [(R)-5c, (3R,3′R)-1,1′-(4,8-di(thiazolidin-3-yl)pyrimido[5,4-d]pyrimidine-2,6-diyl)bis(pyrrolidin-3-ol)] | 45 | 74 | 198 ± 45 nM | – |
| O[C@@H]1CCCN(c2nc(N3CCC(F)CC3)c3nc(N4CCC[C@@H](O)C4)nc(N4CCC(F)CC4)c3n2)C1 [(R)-6a, (3R,3′R)-1,1′-(4,8-bis(4-fluoropiperidin-1-yl)pyrimido[5,4-d]pyrimidine-2,6-diyl)bis(piperidin-3-ol)] | 8 | 36 | – | – |
| OCCN(CCO)c1nc(N2CC[C@H](F)C2)c2nc(N(CCO)CCO)nc(N3CC[C@H](F)C3)c2n1 [(S)-4h, 2,2′,2″,2‴-((4,8-bis((S)-3-fluoropyrrolidin-1-yl)pyrimido[5,4-d]pyrimidine-2,6-diyl)bis(azanetriyl))tetrakis(ethan-1-ol)] | 34 | 55 | 332 ± 56 nM | half-life at 0.5 μM [1]: 67 min |
| C[C@H]1CCCN1c1nc(N(CCO)CCO)nc2c(N3CCC[C@@H]3C)nc(N(CCO)CCO)nc12 [(S)-4f, 2,2′,2″,2‴-((4,8-bis((S)-2-methylpyrrolidin-1-yl)pyrimido[5,4-d]pyrimidine-2,6-diyl)bis(azanetriyl))tetrakis(ethan-1-ol)] | 16 | 42 | – | – |
| OC[C@H]1CCCN(c2nc(N3CCSC3)c3nc(N4CCC[C@H](CO)C4)nc(N4CCSC4)c3n2)C1 [(S)-5b, ((3S,3′S)-(4,8-di(thiazolidin-3-yl)pyrimido[5,4-d]pyrimidine-2,6-diyl)bis(piperidine-1,3-diyl))dimethanol] | 13 | 34 | – | – |
| OCCN(CCO)c1nc(N2CCCCC2)c2nc(N(CCO)CCO)nc(N3CCCCC3)c2n1 [DIP, Dipyridamole, reference compound] | – | – | – | levels of fibrosis markers α-SMA and FN [2]: significantly decreased; inhibition at 0.1 µM (PDE5A; read-out: Inhibition Ratio (%) 0.1 μM, PDE5, compound at 0.1 μM): 17%; inhibition at 0.5 µM (PDE5A; read-out: Inhibition Ratio (%) 0.5 μM, PDE5, compound at 0.5 μM): 84%; solubility in water [3]: practically insoluble in water |
| OCCN(CCO)c1nc(N2CC[C@@H](F)C2)c2nc(N(CCO)CCO)nc(N3CC[C@@H](F)C3)c2n1 [(R)-4h, 2,2′,2″,2‴-((4,8-bis((R)-3-fluoropyrrolidin-1-yl)pyrimido[5,4-d]pyrimidine-2,6-diyl)bis(azanetriyl))tetrakis(ethan-1-ol)] | 27 | 44 | – | – |
| OC[C@@H]1CCCN(c2nc(N3CCSC3)c3nc(N4CCC[C@@H](CO)C4)nc(N4CCSC4)c3n2)C1 [(R)-5b, ((3R,3′R)-(4,8-di(thiazolidin-3-yl)pyrimido[5,4-d]pyrimidine-2,6-diyl)bis(piperidine-1,3-diyl))dimethanol] | – | – | 109 ± 20 nM | – |

Now from value to molecule, other results behind:

| inhibition at 0.1 µM (PDE5A; [4]) [%] | inhibition at 0.5 µM (PDE5A; [5]) [%] | IC50 (PDE5A) | SMILES | also measured |
| --- | --- | --- | --- | --- |
| 7 | < 50 | – | OCCN(CCO)c1nc(N2CCCC2)c2nc(N(CCO)CCO)nc(N3CCCC3)c2n1 [4e, 2,2′,2″,2‴-((4,8-di(pyrrolidin-1-yl)pyrimido[5,4-d]pyrimidine-2,6-diyl)bis(azanetriyl))tetrakis(ethan-1-ol)] | – |
| 45 | 91 | 100 ± 1 nM | OCCN(CCO)c1nc(N2CCSC2)c2nc(N(CCO)CCO)nc(N3CCSCC3)c2n1 [9a, 2,2′,2″,2‴-((4-(thiazolidin-3-yl)-8-thiomorpholinopyrimido[5,4-d]pyrimidine-2,6-diyl)bis(azanetriyl))tetrakis(ethan-1-ol)] | half-life at 0.5 μM [1]: 4 min |
| 7 | 48 | – | OC1CCCN(c2nc(N3CCC(F)CC3)c3nc(N4CCCC(O)C4)nc(N4CCC(F)CC4)c3n2)C1 (stereo not shown) [6a, 1,1′-(4,8-bis(4-fluoropiperidin-1-yl)pyrimido[5,4-d]pyrimidine-2,6-diyl)bis(piperidin-3-ol)] | – |
| 53 | 75 | 64 nM and 113 nM | OCCN(CCO)c1nc(N2CCSCC2)c2nc(N(CCO)CCO)nc(N3CCSCC3)c2n1 [4b, 2,2′,2″,2‴-((4,8-dithiomorpholinopyrimido[5,4-d]pyrimidine-2,6-diyl)bis(azanetriyl))tetrakis(ethan-1-ol)] | half-life at 0.5 μM [1]: 7 min |
| 0 | 7 | – | OCC1CCCN(c2nc(N3CCC(F)CC3)c3nc(N4CCCC(CO)C4)nc(N4CCC(F)CC4)c3n2)C1 (stereo not shown) [6b, ((4,8-bis(4-fluoropiperidin-1-yl)pyrimido[5,4-d]pyrimidine-2,6-diyl)bis(piperidine-1,3-diyl))dimethanol] | – |
| 60 | 93 | 113 nM and 64 nM | OCCN(CCO)c1nc(N2CCSC2)c2nc(N(CCO)CCO)nc(N3CCSC3)c2n1 [4g, 2,2′,2″,2‴-((4,8-di(thiazolidin-3-yl)pyrimido[5,4-d]pyrimidine-2,6-diyl)bis(azanetriyl))tetrakis(ethan-1-ol)] | half-life at 0.5 μM [1]: 5 min |
| 0 | 40 | > 500 nM | OCCN(CCO)c1nc(N2CCOCC2)c2nc(N(CCO)CCO)nc(N3CCOCC3)c2n1 [4a, 2,2′,2″,2‴-((4,8-dimorpholinopyrimido[5,4-d]pyrimidine-2,6-diyl)bis(azanetriyl))tetrakis(ethan-1-ol)] | – |
| 24 | 61 | 353 ± 57 nM | OCCN(CCO)c1nc(N2CCC(F)(F)C2)c2nc(N(CCO)CCO)nc(N3CCC(F)(F)C3)c2n1 [4i, 2,2′,2″,2‴-((4,8-bis(3,3-difluoropyrrolidin-1-yl)pyrimido[5,4-d]pyrimidine-2,6-diyl)bis(azanetriyl))tetrakis(ethan-1-ol)] | – |
| 41 | 72 | 362 ± 81 nM | OCCN(CCO)c1nc(N2CCC(F)(F)CC2)c2nc(N(CCO)CCO)nc(N3CCC(F)(F)CC3)c2n1 [4d, 2,2′,2″,2‴-((4,8-bis(4,4-difluoropiperidin-1-yl)pyrimido[5,4-d]pyrimidine-2,6-diyl)bis(azanetriyl))tetrakis(ethan-1-ol)] | half-life at 0.5 μM [1]: 19 min |
| 31 | 62 | 343 ± 18 nM | OCCN(CCO)c1nc(N2CCC(F)CC2)c2nc(N(CCO)CCO)nc(N3CCC(F)CC3)c2n1 [4c, 2,2′,2″,2‴-((4,8-bis(4-fluoropiperidin-1-yl)pyrimido[5,4-d]pyrimidine-2,6-diyl)bis(azanetriyl))tetrakis(ethan-1-ol)] | half-life at 0.5 μM [1]: 44 min |
| 52 | 79 | 167 ± 41 nM | OCC1CCCN(c2nc(N3CCSC3)c3nc(N4CCCC(CO)C4)nc(N4CCSC4)c3n2)C1 (stereo not shown) [5b, ((4,8-di(thiazolidin-3-yl)pyrimido[5,4-d]pyrimidine-2,6-diyl)bis(piperidine-1,3-diyl))dimethanol] | – |
| 33 | 81 | 94 ± 9 nM | OCCN(CCO)c1nc(N2CC[C@H](F)C2)c2nc(N(CCO)CCO)nc(N3CCSC3)c2n1 [9b, (S)-2,2′,2″,2‴-((4-(3-fluoropyrrolidin-1-yl)-8-(thiazolidin-3-yl)pyrimido[5,4-d]pyrimidine-2,6-diyl)bis(azanetriyl))tetrakis(ethan-1-ol)] | half-life at 0.5 μM [1]: 10 min |
| 29 | 32 | – | OC1CCN(c2nc(N3CCSC3)c3nc(N4CCC(O)CC4)nc(N4CCSC4)c3n2)CC1 [5a, 1,1′-(4,8-di(thiazolidin-3-yl)pyrimido[5,4-d]pyrimidine-2,6-diyl)bis(piperidin-4-ol)] | – |
| 14 | 60 | 478 ± 3 nM | CC1CCCN1c1nc(N(CCO)CCO)nc2c(N3CCCC3C)nc(N(CCO)CCO)nc12 (stereo not shown) [4f, 2,2′,2″,2‴-((4,8-bis(2-methylpyrrolidin-1-yl)pyrimido[5,4-d]pyrimidine-2,6-diyl)bis(azanetriyl))tetrakis(ethan-1-ol)] | – |
| 5 | 20 | – | OC1CCN(c2nc(N3CCC(F)CC3)c3nc(N4CCC(O)C4)nc(N4CCC(F)CC4)c3n2)C1 (stereo not shown) [6c, 1,1′-(4,8-bis(4-fluoropiperidin-1-yl)pyrimido[5,4-d]pyrimidine-2,6-diyl)bis(pyrrolidin-3-ol)] | – |
